Measurements taken from patent US20150313862A1, “"Pharmaceutical composition for reducing the trimethylamine N-oxide level"” (Latvian Institute of Organic Synthesis, priority 2012, published 2015).
Marks after values point to notes of the source that are not given here.

Tests used:
[1] = cited from earlier work
TMANO [2] = assay: TMANO concentration in blood plasma of healthy volunteers on a TMANO source rich diet (UPLC-MS/MS); assay type: in vivo, human; conditions: for TMANO concentration in study participant's blood plasma: healthy volunteers (n=8), after 7 days TMANO source rich diet (150 g fish/day) with oral Meldonium 500 mg twice a day, mean ± SEM, diet alone 81.5 ± 8.6, baseline 4.9 ± 1.3, dihydrate
Description: (§1) Eight healthy volunteers were involved in the study, 4 women and 4 men. The study was conducted in accordance with the Declaration of Helsinki, and with bioethical norms approved by the Central Committee of Medical Ethics. All study participants have signed informed consent forms. Exclusion criteria for participation in the study were: the use of dietary supplements, smoking, pregnancy and alcohol addiction. At the study beginning information about the participant's age, medication use, height and weight was recorded.
(§2) Then, a venous blood sample and evening and morning urine samples were collected from the study participants. At the first stage of experiment, all participants received 150 grams of fish for lunch, once a day, during 7 days, which served as a source of TMANO increased formation in the body (W. J. Dyer. Amines in Fish Muscle. VI. Trimethylamine Oxide Content of Fish and Marine Invertebrates, Journal of the Fisheries Research Board of Canada, 8c(5): 314-324, 10.1139/f50-020, 1952).
During the next stage of experiment, to determine the effect of Meldonium on TMANO concentration in blood plasma and urine, in addition to trimethylamine-rich food source, a pharmaceutical composition containing 500 mg of Meldonium was administered to each study participant during 7 days, twice a day (morning and evening). […]
(§3) TMANO concentration in plasma and urine samples was determined by ultrahigh performance liquid chromatography-tandem mass spectrometry method. […] TMANO detection and quantification was performed using Quattro Micro™ spectrometer (Micromass) in an ion reaction monitoring (TMANO ion transition m/z75.8>m/z58.3, IS ion transition m/z175.4>m/z86.0) positive electrospraying mode (cone voltage 26V, collision energy 14 eV, collision gas—argon). […]
TMANO concentration in the sample was calculated using the linear relationship TMANO peak area/IS peak area—TMANO concentration using the data processing software QuanLynx V4.1 (Waters). […]

TMANO [3] = assay: Total amount of TMANO excreted with urine during 7 days, healthy volunteers on a TMANO source rich diet (UPLC-MS/MS, creatinine by Jaffe method); assay type: in vivo, human; conditions: for Total excreted with urine TMANO amount during 7 days: healthy volunteers (n=8), 7 days TMANO source rich diet with oral Meldonium 1 g/day, area under the curve, mean ± SEM, diet alone 18.2 ± 2.2, baseline 2.8 ± 0.6, dihydrate
Description: as §1
as §2, with “1952). […]” for “1952).”
as §3
TMANO concentration in the sample was calculated using the linear relationship TMANO peak area/IS peak area—TMANO concentration using the data processing software QuanLynx V4.1 (Waters).
Creatinine concentration was calculated by slightly modified Jaffe method (Jaffe M. Ueber die Niederschlag, welchen Pikrinsaure in normalem Ham erzeugt and uber eine neue Reaction des Kreatinins. Z physiol Chem 1886; 10: 391-400). […] After 10 min of incubation at room temperature the absorbance was measured at 492 nm with a μQuant™ multiwell plate […] spectrophotometer (Biotek Instruments, USA). […]

For `C[N+](C)(C)NCCC(=O)[O-]` [Meldonium, 3-(2,2,2-trimethyhydrazinium)propionate dihydrate], the Solubility in water [1] is given as “easily soluble in water”, the “Reduction of TMANO plasma concentration” value (TMANO [2]; 7 days oral Meldonium 500 mg twice a day with TMANO-rich food, compared with TMANO level before Meldonium use, statistically significant) is given as 47% and the “TMANO concentration in study participant's blood plasma” value (TMANO [2]) is given as 43.0 ± 3.8 nmol/mL. The “TMANO concentration in study participant's blood plasma” value (TMANO [2]; listed as TMANO + Meldonium) was 43.0 ± 3.8*^,# nmol/ml, the “Increase of urine excreted TMANO amount” value (TMANO [3]; 7 days oral Meldonium 500 mg twice a day with TMANO-rich food, versus before Meldonium use, statistically significant) was “about 25%” and the “Total excreted with urine TMANO amount during 7 days” value (TMANO [3]) was 24.3±1.5 μmol/mg creatinine *7 d. For the same molecule, the “Total excreted with urine TMANO amount during 7 days” value (TMANO [3]; listed as TMANO + Meldonium) was 24.3 ± 1.5*^,# μmol/mg creatinine *7 d.
